According to US7767817B2, “Water soluble boronic acid fluorescent reporter compounds and methods of use thereof” (priority 2003, dated 2010):
Where “and” joins values, the source holds several entries; their conditions need not be identical. Equal values may be shown once. Read-outs that look alike come from different tables or passages of the source.

Columns and labels:
[1] = literature value (Springsteen, Wang); cited from earlier work
[2] = literature value (Springsteen, Wang); cited from earlier work; remark: listed apart in the source
[3] = literature value; cited from earlier work
[4] = Fluorescence binding study with mannose; settings: for Association constant (Ka) with mannose: 0.1 M phosphate buffer pH 7.4, 1:1 complex assumed
Experimental: (§1) For a typical sugar-BTBA fluorescent measurement, a 1.0×10^−5 M stock solution of BTBA in 0.10 M phosphate buffer at pH 7.4 was made as solution A. […] Solution B was titrated into solution A in order to make mixtures with a constant concentration of BTBA and a range of concentrations of the sugar. Each mixture was allowed to stand for at least 10 min, then 3.0 mL of the mixture was transferred into a cuvette for fluorescence measurement.
(§2) The association constants (Ka) were determined according to the method III in Valeur's publication (J. Phys. Chem. 1988, 92, 6233).

[5] = Fluorescence intensity pH profile (apparent pKa); type: physicochemical
Text: Since the fluorescence intensity increase upon binding with a sugar seems to be a general phenomenon, the fluorescence change mechanism of compound 5 at pH 7.4 was investigated. For this purpose, the fluorescence pH profiles of both compound 5 alone and compound 5 in the presence of fructose (0.5 M) were studied. The fluorescence intensity of 5 at 334 nm in the absence of sugars decreased upon changing the pH from 3 to 12 (FIG. 3). An apparent pKa of 7.0 was observed, which is assigned to the boronic acid moiety. […] It is well-known that the binding of a diol to boronic acid often lowers the pKa of the boron species) (Springsteen, G.; Wang, B. Tetrahedron 2002, 58, 5291-5300). Therefore, the pKa, which drops from 7.0 to 4.0, can also be reasonably assigned to boron. […] It seems that the fluorescence intensity change of compound 5 is also due to diol's perturbation as that of 8-quinolineboronic acid.
To examine the relationship between the fluorescence intensity changes and the boron ionization states, the pH profile of the fluorescence intensity in the absence and presence of fructose and glucose at a fixed concentration (50 mM) was also studied (FIG. 6). […] It is worth mentioning that the pKa of the protonated dimethyl amino group of 1 is […] the emission wavelength of 1 with the protonated dimethyl amino group at low pH is about 238 nm. Therefore, the fluorescence intensity of 1 at 445 nm was not affected by the protonated dimethyl amino group. The fluorescence intensity changes correspond to the boronic acid pKa (9.4) and therefore hybridization changes, which was responsible for the fluorescence intensity changes observed.
Since the fluorescence intensity increase upon binding with a sugar seems to be a general phenomenon, next the conditions under which optimal fluorescence intensity changes are observed upon addition of a sugar was investigated. For this purpose, the fluorescence pH profiles of both compound 6 alone and in the presence of fructose (0.5 M) were studied. The fluorescence intensity of 6 in the absence of sugars increased by 17-fold upon changing the pH from 3 to 12 (FIG. 10). […] Furthermore, one would expect the pKa values of the other two ionizable groups, the carboxylic acid and the quinolinium groups, to be less than 7. Therefore, assigning the pKa at 7.9 to the boronic acid moiety is the most reasonable option. […] It is well-known that the binding of a diol to boronic acid often lowers the pKa of the boron species. […] Upon addition of fructose, the pKa of the boron drops to about 5.2, which ensures that most of the boron species are in the anionic tetrahedral state at physiological pH.
(§3) Since the fluorescence intensity increase upon binding with a sugar seems to be a general phenomenon, the use of 5-QBA functions as a fluorescent probe for diols was investigated. The fluorescence pH profiles of both 5-QBA alone and 5-QBA in the presence of D-fructose (0.5 M) were investigated. […] In order to assign each pKa, the ^11B NMR spectra of 5-QBA and its ester in a mixed deuterated methanol-water (1:1) solvent at different pH were obtained. Methanol was used so that the concentration of 5-QBA can be increased to 57 mM so as to allow for a meaningful NMR determination within a reasonable period of time.
To understand the structural features associated with the fluorescence intensity changes, we studied the pH profiles of the fluorescence intensity in the absence (FIG. 18) and presence of fructose and glucose at a fixed concentration (50 mM). […] The fluorescence intensity at 513 nm increased very quickly when pH increased from 1.78 to 7.04 (thin lines in FIG. 18), and then decreased in the pH range of 7.04-10.54 (thick lines in FIG. 18).

[6] = Fluorescence quantum yield; type: physicochemical; settings: 0.1 M phosphate buffer pH 7.4
Experimental: The effect of various carbohydrates on the fluorescent properties of compound 1 was determined in phosphate buffer at pH 7.4. The emission spectral change of 1 with fructose at different concentrations in 0.1 M aqueous phosphate buffer (pH 7.4) is shown in FIG. 4. A 41-fold emission intensity increase is observed in presence of 50 mM fructose. To the best of our knowledge, such a large emission intensity increase has never been reported for boronic acid-based saccharide sensors involving the ICT mechanism. The quantum yields of 1 in the absence (φF=0.010) and in the presence of 50 mM fructose (φF=0.42) in 0.1 M phosphate buffer (pH 7.4) were obtained using 8-quinoline boronic acid (φF=0.58 in 12 M H2SO4) as a reference compound.
For example, addition of fructose (50 mM) to the solution of 7 induced a 36-fold fluorescence intensity increase at 433 nm and a 0.55-fold fluorescence intensity decrease at 513 nm (FIG. 14). […] To the best of our knowledge, such large emission intensity changes at two wavelengths have never been reported for boronic acid-based saccharide sensors. The quantum yields (φF) of 7 were determined as 0.07 at 513 nm in 0.1 M phosphate buffer (pH 7.4) in the absence of a sugar and 0.23 at 433 nm in the presence of 50 mM of fructose, using 8-quinoline boronic acid (φF=0.58 in 12 M H2SO4) as a reference compound.

[7] = Fluorescence binding study with fructose; settings: for fluorescence intensity change ΔI/I0: pH 7.4; for Association constant (Ka) with fructose: 0.1 M phosphate buffer pH 7.4, 1:1 complex assumed
Experimental: as §1, §2

[8] = Fluorescence binding study with galactose; settings: for fluorescence intensity change ΔI/I0: pH 7.4; for Association constant (Ka) with galactose: 0.1 M phosphate buffer pH 7.4, 1:1 complex assumed
Experimental: as §1, §2

[9] = Fluorescence binding study with glucose; settings: for Association constant (Ka) with glucose: 0.1 M phosphate buffer pH 7.4, 1:1 complex assumed; for fluorescence intensity change ΔI/I0: pH 7.4; for maximum fluorescence intensity increase: physiological pH
Experimental: as §1, §2

[10] = Fluorescence binding study with sorbitol
Experimental: as §1, §2

[11] = Fluorescence binding study with tagatose
Experimental: as §1, §2

[12] = in 12 M H2SO4; reference compound; cited from earlier work
[13] = 11B NMR at different pH (pKa assignment); type: physicochemical; settings: absence of sugar; 11B NMR in deuterated methanol-water (1:1); read-out: second pKa corresponding to boronic acid ionization
Text: as §3
It should be noted that the addition of 50% methanol to water solution results in minimal changes of the solution pH. The boron signal of 5-QBA appeared at 30.0 ppm at both pH 2.0 and 7.0, consistent with the neutral trigonal boron. At an increased pH (7.5), two boron signals at 30.0 and 10.0 ppm were observed indicating a mixture of both the neutral and anionic species. […] At pH 12, a single peak at 5.7 ppm was found indicating the presence of only the anionic tetrahedral state. […] This pKa assignment is opposite to that of 8-QBA. For the fructose ester of 5-QBA, we observed the same chemical shifts (at about 10.5 ppm) at pH 6.0 and 11. […] Such a pKa-switching seems to correspond to the highest fluorescence intensity change at pH 5.8 (FIG. 13).

[14] = Fluorescence binding study with arabinose; settings: 0.1 M phosphate buffer pH 7.4
Experimental: For a typical sugar-BTBA fluorescent measurement, a 1.0×10^−5 M stock solution of BTBA in 0.10 M phosphate buffer at pH 7.4 was made as solution A. The sugar was added to a portion of solution A to make a 1.0×10^−5 M BTBA, 1.0×10^−3 M sugar solution as solution B. Solution B was titrated into solution A in order to make mixtures with a constant concentration of BTBA and a range of concentrations of the sugar. Each mixture was allowed to stand for at least 10 min, then 3.0 mL of the mixture was transferred into a cuvette for fluorescence measurement.
as §2

[15] = 0.1 M phosphate buffer, absence of sugar, 0.1 M phosphate buffer, read-out: apparent pKa assigned to the boronic acid moiety
[16] = 0.1 M phosphate buffer pH 7.4, 1:1 complex assumed

Structure (SMILES): OB(O)c1ccccc1 [phenylboronic acid]
- Ka for galactose [1]: 15 M⁻¹
- Ka for glucose [2]: 5 M⁻¹
- Ka for fructose [3]: 162 M⁻¹

Structure (SMILES): CN(C)c1ccc(B(O)O)c2ccccc12 [Compound 1, 4-(dimethylamino)-naphthalene boronic acid]
- Association constant (Ka) with mannose [4]: 48 ± 5 M⁻¹
- fluorescence intensity change ΔI/I0 ([4]; mannose 0.025 M, pH 7.4, λex 270 nm, λem 400 nm): 14 (0.025)
- pKa [5, 15]: 9.4
- quantum yield φF ([6]; absence of sugar): 0.010
- quantum yield φF ([6]; presence of 50 mM fructose): 0.42
- emission intensity increase ([7]; 50 mM fructose, 0.1 M aqueous phosphate buffer pH 7.4): 41 fold
- fluorescence intensity change ΔI/I0 ([7]; fructose 0.025 M, λex 270 nm, λem 400 nm): 25 (0.025)
- fluorescence intensity change ΔI/I0 ([7]; fructose 0.05 M, λex 300 nm, λem 445 nm): 41 (0.05)
- fluorescence intensity change ([7]; fructose at concentrations above 50 mM, physiological pH): more than 40 fold
- fluorescence intensity change ΔI/I0 ([8]; galactose 0.025 M, λex 270 nm, λem 400 nm): 16 (0.025)
- fluorescence intensity change ΔI/I0 ([8]; galactose 0.50 M, λex 300 nm, λem 445 nm): 35 (0.50)
- Association constant (Ka) with glucose [9]: 4.0 ± 0.1 M⁻¹ and 5.1 ± 1.0 M⁻¹
- fluorescence intensity change ΔI/I0 ([9]; glucose 0.20 M, λex 270 nm, λem 400 nm): 6 (0.20)
- fluorescence intensity change ΔI/I0 ([9]; glucose 1.0 M, λex 300 nm, λem 445 nm): 17 (1.0)
- maximum fluorescence intensity increase ([9]; glucose 1 M): 17 fold
- Association constant (Ka) with sorbitol [10, 16]: 226 ± 5 M⁻¹
- fluorescence intensity change ΔI/I0 ([10]; sorbitol 0.10 M, pH 7.4, λex 300 nm, λem 445 nm): 42 (0.10)
- fluorescence intensity change ([10]; sorbitol at concentrations above 50 mM, physiological pH): more than 40 fold
- Association constant (Ka) with tagatose [11, 16]: 116 ± 2 M⁻¹
- fluorescence intensity change ΔI/I0 ([11]; tagatose 0.02 M, pH 7.4, λex 300 nm, λem 445 nm): 32 (0.02)

Structure (SMILES): OB(O)c1cccc2cccnc12 [Compound 4, 8-quinolineboronic acid]
- quantum yield φF [12]: 0.58

Structure (SMILES): OB(O)c1cc2ccccc2s1 [Compound 5, 2-Benzothienylboronic acid]
- Association constant (Ka) with mannose [4]: 30 ± 1.4 M⁻¹
- pKa [5, 15]: 7
- Association constant (Ka) with fructose [7]: 656 ± 28 M⁻¹
- Association constant (Ka) with galactose [8]: 19 M⁻¹ and 19 ± 0.7 M⁻¹
- Association constant (Ka) with glucose [9]: 27 M⁻¹ and 27 ± 4.9 M⁻¹

Structure (SMILES): O=C(O)c1cc(-c2ccc(B(O)O)cc2)nc2ccccc12 [Compound 6, 2-(4-phenylboronic acid)-quinoline-4-carboxylic acid]
- pKa [5, 15]: 7.9
- emission intensity increase ([7]; 25 mM fructose, phosphate buffer pH 7.4): 25 fold
- maximum fluorescence intensity increase ([9]; glucose 0.2 M): 6 fold

Structure (SMILES): OB(O)c1cccc2ncccc12 [Compound 3]
- Association constant (Ka) with mannose [4]: 60 ± 2 M⁻¹
- pKa ([5]; phosphate buffer, absence of a sugar, read-out: pKa assigned to the quinolinium nitrogen): 5.2
- Association constant (Ka) with fructose [7]: 924 ± 88 M⁻¹
- binding constant with D-fructose, increase compared with 8-QBA ([7]; 5-QBA versus 8-QBA): more than 8 folds
- pKa [13]: 7 to 12
- Association constant (Ka) with galactose [8]: 90 ± 2 M⁻¹
- Binding constant with arabinose [14]: 121 ± 16 M⁻¹
